Assay results from US20250144051A1, “Colchicine for Treating Connective Tissue Disorders” (Khan Sciences, Inc., priority 2023, published 2025).

Tests used:
[1] = test system: IL-6; assay: In vitro tendinopathy model, IL-6 in tenocyte supernatant (MSD multiplex); format: cell-based, human
Procedure: (§1) In Vitro Tendinopathy Model: The below experiment was conducted on an in vitro tendinopathy model. Cells derived from human tendons (tenocytes) can serve as an in vitro model of tendons. See Miller et al., “MicroRNA29a regulates IL-33-mediated tissue remodelling in tendon disease.” Nat Commun 6, 6774 (2015). Cultured tenocytes can be used to investigate the effects of pro-inflammatory cytokines upon the most basic elements of tendon structure. See Ellis et al., “Defining the profile: Characterizing cytokines in tendon injury to improve clinical therapy.” Journal of Immunology and Regenerative Medicine 16, 100059 (2022). When a tendon is injured, it triggers a local inflammatory response that involves immune cell infiltration and the expression of pro-inflammatory mediators. This inflammatory environment can modify tenocyte physiology, causing them to become activated and pro-inflammatory. Exposing the tenocytes to the pro-inflammatory cytokines TNF-α and IL-1β can mimic the effects of tendon injury. See Smith et al., “Tumour necrosis factor alpha, interleukin 1 beta and interferon gamma have detrimental effects on equine tenocytes that cannot be rescued by IL-1RA or mesenchymal stromal cell-derived factors.” Cell Tissue Res 391, 523-544 (2023).
(§2) Cell Culture System. Immortalized, healthy, commercially-sourced human tenocyte cells (donor, patellar tendon) were reconstituted, seeded in T-75 flasks coated with bovine collagen I, and were maintained in Tenocyte Growth Medium supplemented with Tenocyte Growth Supplement, FBS, and penicillin/streptomycin. Culture conditions were maintained at 37° C. in a humidified 5% CO2 atmosphere. Cells were seeded at a density of 100,000 cells/well in commercially-sourced 24-well plates that were pre-coated with rat tail tendon collagen I.
(§3) Treatment Protocol. This study was designed to follow the time-course of collagen production after cytokine exposure to mimic the effects of tendon injury. The time variable was cytokine exposure time (6 hours, 1 day, 3 days, and 5 days). Each of these cytokine exposure time periods was followed by a 24-hour drug treatment period. Inflammatory conditions were induced using a combination of IL-1β (1 nM; 17 ng/ml) and TNF-α (10 ng/ml). Two therapeutic interventions were evaluated. The treatment designated as “treatment A” was colchicine (2 nM). The treatment designated as “treatment B” was colchicine (2 nM) plus pyridoxine (100 μM).
(§4) Experimental Groups. The treatment groups were as follows: (1) exposed to inflammatory cytokines plus treatment A; (2) exposed to inflammatory cytokines plus treatment B; (3) exposed to inflammatory cytokines (negative control, no drug). Further reference control groups were as follows: (A) treatment A without inflammatory cytokine exposure (drug-only control); (B) treatment B without inflammatory cytokine exposure (drug-only control); (C) healthy control (no inflammatory cytokines, no drug treatment).
(§5) Sample Collection Times. Samples were collected at the following timepoints after initiation of cytokine exposure: • 6-hour samples: Collection at 30 hours (6 hr cytokine exposure+24 hr drug treatment) • 1-day samples: Collection at 48 hours (24 hr cytokine exposure+24 hr drug treatment) • 3-day samples: Collection at 96 hours (72 hr cytokine exposure+24 hr drug treatment) • 5-day samples: Collection at 144 hours (120 hr cytokine exposure+24 hr drug treatment, cell culture medium replenished on day-3)
(§6) Assays Used. Collagen I (human) content was measured using enzyme-linked immunosorbent assay (ELISA) in cell culture supernatants. TGF-β1 in cell culture supernatants were measured using the MSD multiplex platform. Other inflammatory cytokines in cell culture supernatants were measured using the MSD multiplex platform.

[2] = test system: patient with bilateral upper extremity tendonitis (repetitive strain injury); assay: Experimental clinical trial of oral colchicine in one patient with tendonitis; format: in vivo, human
Procedure: An experimental trial was conducted on a patient, who was a person with bilateral upper extremity tendonitis for 7 months duration. The symptoms at the wrist radiated down to their fingers and up to their elbow. They reported the severity of their symptoms as 5-7 on a 1-10 standard discomfort scale. The cause of their widespread tendonitis was repetitive strain injury.
The patient began treatment with 0.6 mg of colchicine by oral intake once daily. […] With continued daily dosing of colchicine for a total of two weeks duration, symptoms were nearly gone. They were free of symptoms while performing their activities of daily living. At the end of two weeks of treatment, the patient reported reduced severity of symptoms to a level of 2 on a standard 1-10 discomfort scale.
The experimental trial was further extended to observe the effect of discontinuing the colchicine after initially achieving therapeutic success. Upon discontinuing, their tendonitis symptoms gradually returned. After 7 days without treatment, they reported the severity of their symptoms had worsened to 5 on the standard scale. After another 14 days without treatment (21 days cumulative), their symptoms remained at level 5, and occasionally rising to level 6 with increased arm use activity.

[3] = test system: TGF-β1; assay: In vitro tendinopathy model, TGF-β1 in tenocyte supernatant (MSD multiplex); format: cell-based, human
Procedure: as §1, §2, §3, §4, §5, §6

[4] = test system: IL-33; assay: In vitro tendinopathy model, IL-33 in tenocyte supernatant (MSD multiplex); format: cell-based, human; design: IL-33, % of negative control / reduction of IL-33 levels compared to negative control: concentration or dose not given beside the values
Procedure: as §1, §2, §3, §4, §5, §6

[5] = test system: VEGF; assay: In vitro tendinopathy model, VEGF in tenocyte supernatant (MSD multiplex); format: cell-based, human; conditions: 6 hr cytokine exposure + 24 hr drug treatment
Procedure: as §1, §2, §3, §4, §5, §6

[6] = 6 hr cytokine exposure + 24 hr drug treatment
[7] = 1 day cytokine exposure + 24 hr drug treatment
[8] = 3 days cytokine exposure + 24 hr drug treatment
[9] = 5 days cytokine exposure + 24 hr drug treatment

COc1cc2c(c(OC)c1OC)-c1ccc(OC)c(=O)cc1[C@@H](NC(C)=O)CC2 [Treatment A, colchicine]
IL-6, % of healthy level [1, 6]: 873.4% | IL-6, % of negative control [1, 6]: 185.1% | IL-6 level ([1]; 6 hr cytokine exposure + 24 hr drug treatment, negative control 1614.8 pg/mL): 2989.5 pg/mL | IL-6, % of healthy level [1, 7]: 617.8% | IL-6, % of negative control [1, 7]: 122.5% | IL-6 level ([1]; 1 day cytokine exposure + 24 hr drug treatment, negative control 1726.6 pg/mL): 2114.9 pg/mL | IL-6, % of healthy level [1, 8]: 397.3% | IL-6, % of negative control [1, 8]: 127.5% | IL-6 level ([1]; 3 days cytokine exposure + 24 hr drug treatment, negative control 1067.0 pg/mL): 1360.1 pg/mL | IL-6, % of healthy level [1, 9]: 207.0% | IL-6, % of negative control [1, 9]: 101.7% | IL-6 level ([1]; 5 days cytokine exposure + 24 hr drug treatment, negative control 696.6 pg/mL): 708.5 pg/mL | IL-6 level ([1]; drug alone, without inflammatory cytokines, healthy control 342.3 pg/mL): 73.7 pg/mL | tendonitis symptoms ([2]; 0.6 mg oral once daily, by the second day of treatment): began to improve | severity of symptoms on standard 1-10 discomfort scale ([2]; 0.6 mg oral once daily, end of two weeks of treatment, before treatment 5-7): 2 | tendonitis symptoms ([2]; 0.6 mg oral once daily, total of two weeks duration): nearly gone | severity of symptoms on standard 1-10 discomfort scale ([2]; 7 days without treatment after discontinuing colchicine): 5 | severity of symptoms on standard 1-10 discomfort scale ([2]; 21 days cumulative without treatment after discontinuing colchicine): 5 | TGF-β1, % of negative control [3, 6]: 127% | TGF-β1 level ([3]; 6 hr cytokine exposure + 24 hr drug treatment, negative control 0.97 ng/ml): 1.23 ng/mL | TGF-β1, % of negative control [3, 7]: 104% | TGF-β1 level ([3]; 1 day cytokine exposure + 24 hr drug treatment, negative control 1.22 ng/ml): 1.28 ng/mL | TGF-β1, % of healthy baseline [3, 8]: 112% | TGF-β1, % of negative control [3, 8]: 114% | TGF-β1 level ([3]; 3 days cytokine exposure + 24 hr drug treatment, negative control 1.70 ng/ml): 1.94 ng/mL | TGF-β1, % of negative control [3, 9]: 108% | TGF-β1 level ([3]; 5 days cytokine exposure + 24 hr drug treatment, negative control 1.22 ng/mL): 1.32 ng/mL | TGF-β1 level ([3]; drug alone, without inflammatory cytokines, healthy control 1.73 ng/ml): 1.90 ng/mL | TGF-β1, % of healthy baseline ([3]; drug-only control, without inflammatory cytokines): 110% | IL-33, % of healthy level [4, 6]: 113.6% | IL-33, % of negative control [4, 6]: 55.0% | IL-33 level ([4]; 6 hr cytokine exposure + 24 hr drug treatment, negative control 18.0 pg/mL): 9.9 pg/mL | IL-33, % of healthy level [4, 7]: 128.1% | IL-33, % of negative control [4, 7]: 85.1% | IL-33 level ([4]; 1 day cytokine exposure + 24 hr drug treatment, negative control 13.1 pg/mL): 11.2 pg/mL | IL-33, % of healthy level [4, 8]: 87.1% | IL-33, % of negative control [4, 8]: 70.8% | IL-33 level ([4]; 3 days cytokine exposure + 24 hr drug treatment, negative control 10.7 pg/mL): 7.6 pg/mL | IL-33, % of healthy level [4, 9]: 167.4% | IL-33, % of negative control [4, 9]: 85.4% | IL-33 level ([4]; 5 days cytokine exposure + 24 hr drug treatment, negative control 17.1 pg/ml): 14.6 pg/mL | reduction of IL-33 levels compared to negative control ([4]; at 6 hours): 45% | IL-33 level ([4]; drug alone, without inflammatory cytokines, healthy control 8.7 pg/mL): 3.4 pg/mL | VEGF, % of healthy level [5]: 263.2%
